Like-named read-outs stand apart in the source and are kept apart here.
Columns and labels:
[1] = tested on: C. elegans strain glp-4;sek 1; experiment: Toxicity of peptides in uninfected C. elegans; format: in vivo, Caenorhabditis elegans; conditions: worms grown four days with peptide; D-RR4 and colistin at 8 × MIC
Method: To test the efficacy of the synthetic peptides to protect against infections in vivo, we utilized a C. elegans model of bacterial infection. This model has been used extensively for early-stage evaluation of promising antimicrobials, [35], [36]. Initially, the lethal dose of D-RR4 against uninfected nematodes was determined.
(A) Evaluation of toxicity of peptides in Caenorhabditis elegans. C. elegans strain glp-4;sek 1 was grown for four days in the presence of peptides at different concentrations. Worms were monitored daily and the live worms were counted. Results are expressed as a Kaplan-Meier survival curve. (B) Evaluation of antimicrobial activity of peptides to reduce the bacterial CFU inside infected Caenorhabditis elegans. C. elegans strain glp-4; sek 1 were infected with P. aeruginosa PAO1, colistin-resistant P. aeruginosa 1109, or A. baumannii ATCC BAA-1605. […] After treatment, worms were lysed and bacteria were counted. One asterisk (*) indicates significant difference with the negative control. Two asterisks (**) indicates significant difference with the monotherapy treatment (P < 0.05). Results are expressed as means from three biological replicates ± standard deviation. (C) Efficacy of peptides in a Caenorhabditis elegans model of bacterial infection. […] Worms were monitored daily and the live worms were counted. Results are expressed as a Kaplan-Meier survival curve. C. elegans receiving no treatment served as a negative control.

IL-6 = experiment: Anti-inflammatory effect on LPS-stimulated macrophages, ELISA; format: cell-based, murine; conditions: J774A.1 cells, LPS 150 ng/mL, six hours
Method: Figure 3 Ability of peptides to neutralize LPS and reduce inflammatory cytokines expression. (A) LPS binding activity of peptides. Peptides at different concentrations were incubated with one endotoxin unit (EU) of LPS at 37 °C for 30 minutes. […] The binding of peptides with LPS is expressed as percent change relative to the untreated samples. (B) Anti-inflammatory effect of peptides on LPS-stimulated macrophages. J774A.1 cells were stimulated with LPS (150 ng/mL final concentration) in the presence of different concentrations of peptides. Cells stimulated with LPS alone and untreated cells served as controls. Cells were incubated for six hours at 37 °C before the supernatant from each treatment group was collected. Detection of tumor necrosis factor-α (TNF-α) and interleukin-6 (IL-6) in supernatants was determined using ELISA. Cytokine levels are expressed as percent change relative to the LPS-stimulated control. Statistical analysis was calculated using one-way ANOVA, with post hoc Tukey’s multiple comparisons test. P < 0.05 was considered significant. One asterisk (*) indicates significant difference with the negative control.
To assess the anti-inflammatory effect of our peptides on LPS-stimulated macrophages, J774A.1 cells were seeded and incubated as described above (for toxicity assessment). Next, the cells were stimulated with LPS (150 ng/ml final concentration) in the presence of different concentrations of peptides (RR and D-RR4). Cells stimulated with LPS alone and untreated cells served as controls. Cells were incubated for six hours at 37 °C and the supernatant from each treatment was collected and stored at −20 °C until use. Tumor necrosis factor-α (TNF-α) and interleukin-6 (IL-6) present in the supernatant was quantified using ELISA, as described previously. Cytokine levels were presented as the percent change relative to the LPS-stimulated control, using triplicate samples for each treatment condition.

[2] = tested on: P. aeruginosa and A. baumannii isolates
Excerpt: (§1) The broth microdilution technique was utilized to assess the MIC of designed peptides according to the guidelines of the Clinical and Laboratory Standards Institute (CLSI)[37].

[3] = tested on: colistin-resistant P. aeruginosa isolated from cystic fibrosis patients
Excerpt: as §1

Question: How did the “toxicity to uninfected worms” value [1] turn out when Colistin [reference compound] was run?
Answer: Its value is “not toxic”.

Question: And the “decrease of IL-6 production” value (IL-6; 10 µM)?
Answer: The value was over 95%.

Question: What about the “decrease of IL-6 production” value (IL-6; 20 µM) of the same substance?
Answer: Its value is over 95%.

Question: And the MIC50 ([2]; MIC that inhibited growth of 50% of all isolates (Table 2))?
Answer: Its MIC50 is 0.25 µM.

Question: And the MIC90 ([2]; MIC that inhibited growth of 90% of all isolates (Table 2))?
Answer: Its MIC90 is 0.5 µM.

Question: What about the MIC ([3]; strain 1125) of the same substance?
Answer: Its MIC is 32 µM.

Question: And the MIC ([3]; strain 1131)?
Answer: The MIC was 64 µM.

Question: What about the MIC ([3]; strain 1133) of the same substance?
Answer: Its MIC is 32 µM.

Question: What about the MIC ([3]; strain 1603) of the same substance?
Answer: The MIC was 64 µM.
